Data published in US6727264B1 (Synaptic Pharmaceutical Corporation, priority 2001, dated 2004).

What follows are molecules tested against rat MCH-1 (Rattus norvegicus, UniProt P97639) (assay: Radioligand binding assay at cloned rat MCH1 receptor ([3H] Compound A)). Conditions: cloned rat MCH1 receptor, membranes from Peakr293 cells, 0.08 nM [3H] Compound A; read-out: Ki (nM) rMCH1.
Parameters: host or cells: Peak rapid 293 (Peakr293) cells, transient calcium phosphate transfection, membranes

Sequence of rat MCH-1 (P97639 whole entry): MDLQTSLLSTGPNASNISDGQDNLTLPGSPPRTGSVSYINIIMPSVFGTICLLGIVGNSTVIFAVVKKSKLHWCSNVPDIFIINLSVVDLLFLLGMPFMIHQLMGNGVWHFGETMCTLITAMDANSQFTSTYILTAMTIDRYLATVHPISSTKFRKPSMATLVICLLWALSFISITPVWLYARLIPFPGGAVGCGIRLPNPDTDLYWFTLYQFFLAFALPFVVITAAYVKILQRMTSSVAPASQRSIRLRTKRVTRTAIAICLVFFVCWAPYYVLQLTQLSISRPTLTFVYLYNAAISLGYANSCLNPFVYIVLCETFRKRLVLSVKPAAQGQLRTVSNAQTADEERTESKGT

Row | SMILES | Ki
1 | CC(C)C(=O)Nc1cccc(C2CCN(CCC(Oc3ccc(Cl)cc3)c3ccc(Br)cc3)CC2)c1 (stereo not drawn) [Example 159] | 4.5 nM
2 | CC(C)C(=O)Nc1cccc(C2CCN(CCC(Oc3ccc(F)cc3)c3ccc(Br)cc3)CC2)c1 (stereo not drawn) [Example 160] | 6.2 nM
3 | COc1ccc(OC(CCN2CCC(c3cccc(NC(=O)C(C)C)c3)CC2)c2ccc3c(c2)CCC3)cc1 (stereo not drawn) [Example 161] | 7.9 nM
4 | CC(C)C(=O)Nc1cccc(C2CCN(CCC(Oc3ccc(F)cc3)c3ccc4c(c3)CCC4)CC2)c1 (stereo not drawn) [Example 162] | 7.2 nM
5 | CC(C)C(=O)Nc1cccc(C2CCN(CCC(O)c3ccc4c(c3)CCC4)CC2)c1 (stereo not drawn) [Example 163] | 58.3 nM
6 | CC(C)C(=O)Nc1cccc(C2CCN(CCC(Oc3ccc(C(F)(F)F)cc3)c3ccc4c(c3)CCC4)CC2)c1 (stereo not drawn) [Example 164] | 16.3 nM
7 | CC(C)C(=O)Nc1cccc(C2CCN(CCC(Oc3ccc(Br)cc3)c3ccc4c(c3)CCC4)CC2)c1 (stereo not drawn) [Example 165, N-(3-{1-[3-(4- BROMOPHENOXY)-3-(2,3-DIHYDRO-1H-INDEN-5-YL)PROPYL]-4-PIPERIDINYL}PHENYL)-2-METHYLPROPANAMIDE] | 6.2 nM
8 | CC(=O)c1cccc(OC(CCN2CCC(c3cccc(NC(=O)C(C)C)c3)CC2)c2ccc(Cl)cc2)c1 (stereo not drawn) [Example 166] | 7.7 nM
9 | COc1ccc(OC(CCN2CCC(c3cccc(NC(=O)C(C)C)c3)CC2)c2ccc(OC)cc2)cc1 (stereo not drawn) [Example 167] | 80.4 nM
10 | CC(C)C(=O)Nc1cccc(C2CCN(CCC(Oc3ccc(Cl)cc3)c3ccc4c(c3)CCC4)CC2)c1 (stereo not drawn) [Example 168] | 7 nM
11 | CC(=O)c1ccccc1OC(CCN1CCC(c2cccc(NC(=O)C(C)C)c2)CC1)c1ccc(Cl)cc1 (stereo not drawn) [Example 169] | 7.7 nM
12 | COc1ccc(OC(CCN2CCC(c3cccc(NC(=O)C(C)C)c3)CC2)c2ccc(Br)cc2)cc1 (stereo not drawn) [Example 170] | 3 nM
13 | CC(C)C(=O)Nc1cccc(C2CCN(CCC(Oc3ccc(Br)cc3)c3ccc(Cl)cc3)CC2)c1 (stereo not drawn) [Example 171] | 3.7 nM
14 | CC(C)C(=O)Nc1cccc(C2CCN(CCC(Oc3ccc(Cl)cc3)c3ccc(Cl)cc3)CC2)c1 (stereo not drawn) [Example 172] | 3 nM
15 | CC(=O)c1ccccc1OC(CCN1CCC(c2cccc(NC(=O)C(C)C)c2)CC1)c1ccc(F)cc1 (stereo not drawn) [Example 175] | 16.2 nM
16 | CC(=O)c1cccc(OC(CCN2CCC(c3cccc(NC(=O)C(C)C)c3)CC2)c2ccc(F)cc2)c1 (stereo not drawn) [Example 176] | 11.8 nM
17 | COc1ccc(OC(CCN2CCC(c3cccc(NC(=O)C(C)C)c3)CC2)c2ccc(F)cc2)cc1 (stereo not drawn) [Example 177] | 6.8 nM
18 | COc1ccc(C(CCN2CCC(c3cccc(NC(=O)C(C)C)c3)CC2)Oc2ccc(Cl)cc2)cc1 (stereo not drawn) [Example 178] | 119 nM
19 | COc1ccc(C(CCN2CCC(c3cccc(NC(=O)C(C)C)c3)CC2)Oc2cccc(C(C)=O)c2)cc1 (stereo not drawn) [Example 179] | 82.3 nM
20 | COc1ccc(C(CCN2CCC(c3cccc(NC(=O)C(C)C)c3)CC2)Oc2ccc(Br)cc2)cc1 (stereo not drawn) [Example 181] | 91.9 nM
21 | COc1ccc(C(CCN2CCC(c3cccc(NC(=O)C(C)C)c3)CC2)Oc2ccc(C(F)(F)F)cc2)cc1 (stereo not drawn) [Example 182] | 101 nM
22 | CC(C)C(=O)Nc1cccc(C2CCN(CCC(Oc3ccc(F)cc3)c3ccc(Cl)cc3)CC2)c1 (stereo not drawn) [Example 183] | 4 nM

Row | SMILES | Ki
23 | COc1ccc(C(CCN2CCC(c3cccc(NC(=O)C(C)C)c3)CC2)Oc2ccc(F)cc2)cc1 (stereo not drawn) [Example 184] | 105 nM
24 | COc1ccc(C(CCN2CCC(c3cccc(NC(=O)C(C)C)c3)CC2)Oc2ccccc2C(C)=O)cc1 (stereo not drawn) [Example 185] | 20.6 nM
25 | CC(C)C(=O)Nc1cccc(C2CCN(CCC(Oc3ccc(C(F)(F)F)cc3)c3ccc(Cl)cc3)CC2)c1 (stereo not drawn) [Example 186] | 4.9 nM
26 | CC(=O)c1cccc(O[C@@H](CCN2CCC(c3cc(NC(=O)C(C)C)ccc3C)CC2)c2ccccc2)c1 [Example 187] | 15.6 nM
27 | COc1ccc(Oc2ccc(CN3CCC(c4cccc(NC(=O)C(C)C)c4)CC3)cc2)cc1 [Example 196] | 35.2 nM
28 | CC(C)C(=O)Nc1cccc(C2CCN(C(C)c3csc(-c4ccccc4)n3)CC2)c1 (stereo not drawn) [Example 201] | 996 nM
29 | CC(C)C(=O)Nc1cccc(C2CCN(Cc3c(Br)cnn3Cc3ccc(Cl)cc3)CC2)c1 [Example 204] | 39.8 nM
30 | CC(C)C(=O)Nc1cccc(C2CCN(Cc3cccc(Oc4ccc(Cl)c(Cl)c4)c3)CC2)c1 [Example 206] | 17.7 nM
31 | CC(C)C(=O)Nc1cccc(C2CCN(Cc3cccc(Oc4cc(Cl)cc(Cl)c4)c3)CC2)c1 [Example 207, N-(3-{1-[3-(3,5-dichlorophenoxy)benzyl]-4-piperidinyl}phenyl)-2-methylpropanamide] | 137 nM
32 | CC(C)C(=O)Nc1cccc(C2CCN(Cc3cccc(N(C)C)c3)CC2)c1 [Example 211] | 111 nM
33 | CC(C)C(=O)Nc1cccc(C2CCN(Cc3cccc(Oc4ccc(C(C)(C)C)cc4)c3)CC2)c1 [Example 213] | 519 nM
34 | CC(C)C(=O)Nc1cccc(C2CCN(Cc3ccc(N4CCCCC4)c([N+](=O)[O-])c3)CC2)c1 [Example 214] | 56.3 nM
35 | Cc1csc2sc(CN3CCC(c4cccc(NC(=O)C(C)C)c4)CC3)c(C)c12 [Example 215, N-(3-{1-[(3,4- DIMETHYLTHIENO[2,3-B]THIEN-2-YL)METHYL]-4-PIPERIDINYL}PHENYL)-2-METHYLPROPANAMIDE] | 283 nM
36 | CC(C)C(=O)Nc1cccc(C2CCN(Cc3c[nH]nc3-c3ccc(C(F)(F)F)cc3)CC2)c1 [Example 216] | 818 nM
37 | CC(C)C(=O)Nc1cccc(C2CCN(Cc3ccc(-n4cncn4)cc3)CC2)c1 [Example 217] | 300 nM
38 | CC(C)C(=O)Nc1cccc(C2CCN(Cc3ccc(N4CCOCC4)c([N+](=O)[O-])c3)CC2)c1 [Example 219] | 68.8 nM
39 | CC(C)C(=O)Nc1cccc(C2CCN(Cc3ccc(-c4ccc(C(F)(F)F)cc4Cl)o3)CC2)c1 [Example 220] | 159 nM
40 | CCOC(=O)c1cc(-c2ccc(Cl)cc2)oc1CN1CCC(c2cccc(NC(=O)C(C)C)c2)CC1 [Example 222, ETHYL 5-(4-CHLOROPHENYL)-2-({4-[3-(ISOBUTYRYLAMINO)PHENYL]-1-PIPERIDINYL}METHYL)-3-FUROATE] | 152 nM
41 | CC(C)C(=O)Nc1cccc(C2CCN(Cc3ccc4c(c3)OCCO4)CC2)c1 [Example 223] | 318 nM
42 | CC(C)C(=O)Nc1cccc(C2CCN(Cc3ccc(-c4cc(C(F)(F)F)nn4C)s3)CC2)c1 [Example 226] | 239 nM
43 | CC(C)C(=O)Nc1cccc(C2CCN(Cc3ccc(-c4nc(C(C)(C)C)cs4)cc3)CC2)c1 [Example 229] | 885 nM
44 | CC(C)C(=O)Nc1cccc(C2CCN(Cc3ccc4nsnc4c3)CC2)c1 [Example 232] | 431 nM

The next lines start with the values.

Row | Ki | SMILES
45 | 112 nM | COc1ccc(C(CCN2CCC(c3cccc(NC(=O)C(C)C)c3)CC2)Oc2ccccc2)cc1 (stereo not drawn) [Example 173, N-(3-{1-[3-(4- METHOXYPHENYL)-3-PHENOXYPROPYL]-4-PIPERIDINYL}PHENYL)-2-METHYLPROPANAMIDE]
46 | 17 nM | CC(C)C(=O)Nc1cccc(C2CCN(CCC(Oc3ccccc3)c3ccc(F)cc3)CC2)c1 (stereo not drawn) [Example 174]
47 | 9.7 nM | CC(C)C(=O)Nc1cccc(C2CCN(CCC(Oc3ccccc3)c3ccc(Cl)cc3)CC2)c1 (stereo not drawn) [Example 180]
48 | 531 nM | CC(C)CCOc1ccc2ccccc2c1CN1CCC(c2cccc(NC(=O)C(C)C)c2)CC1 [Example 188]
49 | 438 nM | CCCCOc1ccc2ccccc2c1CN1CCC(c2cccc(NC(=O)C(C)C)c2)CC1 [Example 189]
50 | 436 nM | CC(C)C(=O)Nc1cccc(C2CCN(Cc3c(OCc4ccc(C#N)cc4)ccc4ccccc34)CC2)c1 [Example 190]
51 | 649 nM | CC(C)C(=O)Nc1cccc(C2CCN(Cc3c(OCC#N)ccc4ccccc34)CC2)c1 [Example 191]
52 | 80.5 nM | CC(C)C(=O)Nc1cccc(C2CCN(Cc3c(OCc4cccc(Cl)c4)ccc4ccccc34)CC2)c1 [Example 192]
53 | 106 nM | CC(C)CCOc1ccc(CN2CCC(c3cccc(NC(=O)C(C)C)c3)CC2)c2ccccc12 [Example 195]
54 | 63.1 nM | CCCOc1ccc(CN2CCC(c3cccc(NC(=O)C(C)C)c3)CC2)c2ccccc12 [Example 197]
55 | 155 nM | Cc1nn(-c2ccccc2)c(Cl)c1CN1CCC(c2cccc(NC(=O)C(C)C)c2)CC1 [Example 202]
56 | 79.6 nM | CC(C)C(=O)Nc1cccc(C2CCN(Cc3c[nH]c(-c4ccccc4)n3)CC2)c1 [Example 203]
57 | 28 nM | CC(C)C(=O)Nc1cccc(C2CCN(Cc3cccc(Oc4ccccc4)c3)CC2)c1 [Example 205]
58 | 30.8 nM | Cc1ccc(Oc2cccc(CN3CCC(c4cccc(NC(=O)C(C)C)c4)CC3)c2)cc1 [Example 208]
59 | 64.8 nM | CC(C)C(=O)Nc1cccc(C2CCN(Cc3cccc(Oc4cccc(C(F)(F)F)c4)c3)CC2)c1 [Example 209]
60 | 23.3 nM | CC(C)C(=O)Nc1cccc(C2CCN(Cc3cccc(Oc4ccc(Cl)cc4)c3)CC2)c1 [Example 210]
61 | 43 nM | COc1ccc(Oc2cccc(CN3CCC(c4cccc(NC(=O)C(C)C)c4)CC3)c2)cc1 [Example 212]
62 | 126 nM | Cc1c(CN2CCC(c3cccc(NC(=O)C(C)C)c3)CC2)cnn1-c1ccccc1 [Example 218]
63 | 546 nM | CCOC(=O)c1c(CN2CCC(c3cccc(NC(=O)C(C)C)c3)CC2)c(C)n(-c2ccccc2)c1C [Example 221, ETHYL 4-({4-[3-(ISOBUTYRYLAMINO)PHENYL]-1-PIPERIDINYL}METHYL)-2,5-DIMETHYL-1-PHENYL-1H-PYRROLE-3-CARBOXYLATE]
64 | 48 nM | CC(C)C(=O)Nc1cccc(C2CCN(Cc3ccc(Oc4ccccc4)nc3)CC2)c1 [Example 224]
65 | 214 nM | CC(C)C(=O)Nc1cccc(C2CCN(Cc3ccc(-c4ccccn4)s3)CC2)c1 [Example 225]
66 | 262 nM | CC(C)C(=O)Nc1cccc(C2CCN(Cc3cn(S(=O)(=O)c4ccccc4)c4ccccc34)CC2)c1 [Example 227]
67 | 841 nM | Cc1c(CN2CCC(c3cccc(NC(=O)C(C)C)c3)CC2)c(=O)n(-c2ccccc2)n1C [Example 228]
68 | 596 nM | Cc1nc(-c2ccccc2)ncc1CN1CCC(c2cccc(NC(=O)C(C)C)c2)CC1 [Example 231]
69 | 125 nM | CC(C)C(=O)Nc1cccc(C2CCN(Cc3ccc(-c4ccccc4)s3)CC2)c1 [Example 233]
